The numbers were not newly measured in patent US20130023661A1, “FLUORINATING REAGENTS WITH (PERFLUORALKYL) FLUOROPHOSPHATE ANION” (MERCK PATENT GESELLSCHAFT MIT BESCHRANKTER HAFTUNG, priority 2010, published 2013), which cites them from elsewhere.

The conditions of this series: stored in a cool, dry place.

With `F[N+]12CC[N+](CCl)(CC1)CC2` [F-TEDA-BF4, 1-chloromethyl-4-fluorodiazoniabicyclo[2.2.2]octane bistetrafluoroborate], the guaranteed storage stability result is reported as “not more than one year”.
